Measured values as given in patent US11566007B2, “Ras inhibitors” (Revolution Medicines, Inc., priority 2019, dated 2023).
Where “and” joins values, the source holds several entries; their conditions need not be identical. Identical values can stand only once. Like-named read-outs stand apart in the source and are kept apart here.

What was measured:
KRAS WT = KRAS WT (Homo sapiens (Human), UniProt P01116+P62937); test: Ras-Raf (BRAF RBD) disruption / FRET / MOA assay, KRAS WT; type: biochemical
Sequence of KRAS WT (P01116-2 other isoform, or with tags, fused parts or gaps): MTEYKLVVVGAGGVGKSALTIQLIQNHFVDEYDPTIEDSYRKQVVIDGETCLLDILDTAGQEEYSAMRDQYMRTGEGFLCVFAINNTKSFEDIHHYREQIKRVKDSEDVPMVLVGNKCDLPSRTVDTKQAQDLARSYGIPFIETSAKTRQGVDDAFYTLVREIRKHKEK
Sequence of KRAS WT (P62937 whole entry): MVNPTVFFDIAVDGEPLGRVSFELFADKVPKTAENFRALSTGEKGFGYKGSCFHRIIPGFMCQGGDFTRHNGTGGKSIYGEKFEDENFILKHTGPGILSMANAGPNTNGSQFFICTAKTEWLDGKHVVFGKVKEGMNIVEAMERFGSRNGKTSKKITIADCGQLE
Outline: (§1)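 Compound-driven ternary complex of nucleotide-loaded Ras with cyclophilin A, disrupting BRAF RBD binding. 10-point 3-fold dilution from 30 μM final, 3 h at 25° C, then anti-His Eu-W1024 (10 nM) and anti-GST allophycocyanin (50 nM) for 1.5 h. IC50 from TR-FRET ratio decrease versus DMSO.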

KRAS G13D = KRAS G13D (Homo sapiens (Human), UniProt P01116+P62937, G13D); test: Ras-Raf (BRAF RBD) disruption / FRET / MOA assay, KRAS G13D; type: biochemical
Sequence of KRAS G13D (P01116-2 other isoform, or with tags, fused parts or gaps G13D): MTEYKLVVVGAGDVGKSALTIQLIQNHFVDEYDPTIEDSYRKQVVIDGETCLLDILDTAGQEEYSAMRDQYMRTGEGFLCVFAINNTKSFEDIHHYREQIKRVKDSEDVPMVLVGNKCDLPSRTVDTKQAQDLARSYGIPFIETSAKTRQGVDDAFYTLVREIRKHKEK
Sequence of KRAS G13D (P62937 whole entry, canonical isoform): as the sequence (P62937 whole entry) above
Protocol: (§2) The purpose of this biochemical assay is to measure the ability of test compounds to facilitate ternary complex formation between a nucleotide-loaded Ras isoform and cyclophilin A; the resulting ternary complex disrupts binding to a BRAF^RBD construct, inhibiting Ras signaling through a RAF effector.
(§3) Compound is present in plate wells as a 10-point 3-fold dilution series starting at a final concentration of 30 μM. After incubation at 25° C. for 3 hours, a mixture of Anti-His Eu-W1024 and anti-GST allophycocyanin is then added to assay sample wells at final concentrations of 10 nM and 50 nM, respectively, and the reaction incubated for an additional 1.5 hours. […] Compounds that facilitate disruption of a Ras:RAF complex are identified as those eliciting a decrease in the TR-FRET ratio relative to DMSO control wells.
This protocol may also be executed substituting other Ras proteins or nucleotides.
The purpose of this biochemical assay was to measure the ability of test compounds to facilitate ternary complex formation between a nucleotide-loaded K-Ras isoform and Cyclophilin A; the resulting ternary complex disrupts binding to a BRAF^RBD construct, inhibiting K-Ras signaling through a RAF effector. Data is reported as IC50 values.
Compound was present in plate wells as a 10-point 3-fold dilution series starting at a final concentration of 30 μM. After incubation at 25° C. for 3 hours, a mixture of Anti-His Eu-W1024 and anti-GST allophycocyanin was then added to assay sample wells at final concentrations of 10 nM and 50 nM, respectively, and the reaction incubated for an additional 1.5 hours. […] Compounds that facilitate disruption of a K-Ras:RAF complex were identified as those eliciting a decrease in the TR-FRET ratio relative to DMSO control wells.

[1] = tested on: NCI-H358 cells (K-Ras G12C); test: Potency assay: pERK in NCI-H358 cells; type: cell-based, human; details: H358 KRAS G12C, read-out: pERK EC50
Outline: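 4 h cpd, 37 °C; 10-pt 3-fold series, 10 mM DMSO top stock, duplicates. Readout pERK: AlphaLISA SureFire Ultra or In-Cell Western (IR-800CW secondary, DRAQ5 DNA stain). IC50, 4-PL fit vs log conc.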

K-Ras G12C = K-Ras G12C (Homo sapiens (Human), UniProt P01116+P62937, G12C); test: Ras-Raf (BRAF RBD) disruption / FRET / MOA assay, KRAS G12C; type: biochemical; details: KRAS G12C, Ras-Raf disruption/FRET/MOA assay
Sequence of K-Ras G12C (P01116-2 other isoform, or with tags, fused parts or gaps G12C): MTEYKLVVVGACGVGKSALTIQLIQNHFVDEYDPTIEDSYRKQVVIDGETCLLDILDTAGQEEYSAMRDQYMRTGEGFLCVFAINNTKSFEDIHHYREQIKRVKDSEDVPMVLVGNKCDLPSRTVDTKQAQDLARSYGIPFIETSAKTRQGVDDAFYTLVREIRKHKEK
Sequence of K-Ras G12C (P62937 whole entry): as the sequence (P62937 whole entry) above
Outline: as §1

K-Ras G13C = K-Ras G13C (Homo sapiens (Human), UniProt P01116+P62937, G13C); test: Ras-Raf (BRAF RBD) disruption / FRET / MOA assay, KRAS G13C; type: biochemical; details: KRAS G13C, Ras-Raf disruption/FRET/MOA assay
Sequence of K-Ras G13C (P01116-2 other isoform, or with tags, fused parts or gaps G13C): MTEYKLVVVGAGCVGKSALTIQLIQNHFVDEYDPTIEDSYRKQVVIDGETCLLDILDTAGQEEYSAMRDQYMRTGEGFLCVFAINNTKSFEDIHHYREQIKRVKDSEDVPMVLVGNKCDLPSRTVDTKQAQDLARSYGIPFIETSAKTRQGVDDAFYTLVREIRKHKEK
Sequence of K-Ras G13C (P62937 whole entry): as the sequence (P62937 whole entry) above
Outline: as §1

KRAS G12D = KRAS G12D (Homo sapiens (Human), UniProt P01116+P62937, G12D); test: Ras-Raf (BRAF RBD) disruption / FRET / MOA assay, KRAS G12D; type: biochemical; details: class symbols
Sequence of KRAS G12D (P01116-2 other isoform, or with tags, fused parts or gaps G12D): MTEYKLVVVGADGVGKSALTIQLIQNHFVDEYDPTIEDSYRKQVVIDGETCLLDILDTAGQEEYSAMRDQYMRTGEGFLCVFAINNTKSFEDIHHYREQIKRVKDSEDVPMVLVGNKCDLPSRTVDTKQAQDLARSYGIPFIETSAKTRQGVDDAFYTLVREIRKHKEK
Sequence of KRAS G12D (P62937 whole entry): as the sequence (P62937 whole entry) above
Outline: as §1

KRAS G12S = KRAS G12S (Homo sapiens (Human), UniProt P01116+P62937, G12S); test: Ras-Raf (BRAF RBD) disruption / FRET / MOA assay, KRAS G12S; type: biochemical; details: class symbols
Sequence of KRAS G12S (P01116-2 other isoform, or with tags, fused parts or gaps G12S): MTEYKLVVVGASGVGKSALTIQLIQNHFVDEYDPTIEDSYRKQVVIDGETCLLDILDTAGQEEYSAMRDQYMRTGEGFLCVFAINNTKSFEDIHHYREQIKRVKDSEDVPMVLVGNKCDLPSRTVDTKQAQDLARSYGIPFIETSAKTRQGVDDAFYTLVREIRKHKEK
Sequence of KRAS G12S (P62937 whole entry): as the sequence (P62937 whole entry) above
Outline: as §1

NRAS G12C = NRAS G12C (Homo sapiens (Human), UniProt P01111+P62937, G12C); test: Ras-Raf (BRAF RBD) disruption / FRET / MOA assay, NRAS G12C; type: biochemical
Sequence of NRAS G12C (P01111 whole entry G12C): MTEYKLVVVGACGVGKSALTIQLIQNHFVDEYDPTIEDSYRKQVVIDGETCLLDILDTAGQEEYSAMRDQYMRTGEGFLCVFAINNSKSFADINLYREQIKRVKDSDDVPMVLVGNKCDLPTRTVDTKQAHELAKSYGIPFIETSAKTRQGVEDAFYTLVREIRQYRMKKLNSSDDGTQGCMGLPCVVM
Sequence of NRAS G12C (P62937 whole entry): as the sequence (P62937 whole entry) above
Protocol: as §2, §3
This protocol may also be executed substituting other Ras proteins or nucleotides. […]

KRAS G12V = KRAS G12V (Homo sapiens (Human), UniProt P01116+P62937, G12V); test: Ras-Raf (BRAF RBD) disruption / FRET / MOA assay, KRAS G12V; type: biochemical
Sequence of KRAS G12V (P01116-2 other isoform, or with tags, fused parts or gaps G12V): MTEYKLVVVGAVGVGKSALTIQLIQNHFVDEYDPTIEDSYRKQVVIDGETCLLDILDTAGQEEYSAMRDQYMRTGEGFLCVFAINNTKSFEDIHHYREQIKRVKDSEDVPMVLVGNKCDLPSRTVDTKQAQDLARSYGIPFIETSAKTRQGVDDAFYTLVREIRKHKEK
Sequence of KRAS G12V (P62937 whole entry): as the sequence (P62937 whole entry) above
Outline: as §1

NCI-H358 (K-Ras G12C) = test: CellTiter-Glo cell viability assay, NCI-H358; type: cell-based, human; details: Homo sapiens, NCI-H358, 120 h, NCI-H358, 5-day treatment; class symbols; read-out: Additional H358 Cell Viability assay data (K-Ras G12C, IC50)
Outline: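 Viability measured by CellTiter-Glo luminescence on day 5 following direct addition of compound to plated cells. Values expressed as percent of mean DMSO signal; curves fitted with a four-parameter logistic model.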

[2] = read-out: IC50* KRAS WT FRET data
[3] = read-out: IC50* KRAS G13D FRET data
[4] = read-out: IC50* KRAS G12C FRET data
[5] = read-out: IC50* KRAS G13C FRET data
[6] = Ras-Raf disruption/FRET/MOA assay, read-out: KRAS G12D FRET data IC50
[7] = Ras-Raf disruption/FRET/MOA assay, read-out: KRAS G12S FRET data IC50
[8] = read-out: IC50* NRAS G12C FRET data
[9] = read-out: IC50* KRAS G12V FRET data

Structure (SMILES) | IC50 (KRAS WT; [2]) | IC50 (KRAS G13D; [3]) | EC50 [1] [nM] | IC50 (K-Ras G12C; [4]) | IC50 (K-Ras G13C; [5]) | IC50 (KRAS G12D; [6]) [nM] | IC50 (KRAS G12S; [7]) | IC50 (NRAS G12C; [8]) | IC50 (KRAS G12V; [9]) | EC50 ([1]; Homo sapiens, NCI-H358) [nM] | IC50 (NCI-H358 (K-Ras G12C)) [nM] | IC50 (KRAS WT; IC50* KRAS WT FRET data) [nM] | IC50 (KRAS G13D; IC50* KRAS G13D FRET data) [nM] | IC50 (K-Ras G12C; IC50* KRAS G12C FRET data) [nM] | IC50 (K-Ras G13C; IC50* KRAS G13C FRET data) [nM] | IC50 (KRAS G12D; KRAS G12D FRET data IC50, Ras-Raf disruption/FRET/MOA assay) [nM] | IC50 (KRAS G12S; KRAS G12S FRET data IC50, Ras-Raf disruption/FRET/MOA assay) [nM] | IC50 (NRAS G12C; IC50* NRAS G12C FRET data) [nM] | IC50 (KRAS G12V; IC50* KRAS G12V FRET data) [nM]
C=CC(=O)Nc1cnc(C(=O)N(C)[C@H](C(=O)N[C@H]2Cc3cccc(c3)-c3ccc4c(c3)c(c(-c3cccnc3[C@H](C)OC)n4CC)CC(C)(C)COC(=O)[C@@H]3CCCN(N3)C2=O)C(C)C)n1C (atropisomer, axis not shown) [Example A525] | 1000 to 10000 nM | 1000 to 10000 nM | < 5000 | 10 to 100 nM | 10 to 100 nM | 1000 to 10000 | 1000 to 10000 nM | 10 to 100 nM | 1000 to 10000 nM |  |  |  |  |  |  |  |  |  | 
C=CC(=O)C1C[C@@H](C(=O)N(C)[C@H](C(=O)N[C@H]2Cc3cc(O)cc(c3)-c3ccc4c(c3)c(c(-c3ccc5c(c3)CN(C)C5)n4CC)CC(C)(C)COC(=O)[C@@H]3CCCN(N3)C2=O)C(C)C)CN1 (some centres unmarked) [Example A212] | 1000 to 10000 nM and > 10000 nM | 1000 to 10000 nM and > 10000 nM |  | 100 to 1000 nM and 1000 to 10000 nM | 1000 to 10000 nM and > 10000 nM | > 10000 | 1000 to 10000 nM and > 10000 nM | 100 to 1000 nM and 1000 to 10000 nM | 1000 to 10000 nM and > 10000 nM | < 5000 |  |  |  |  |  |  |  |  | 
C=CC(=O)N1CC[C@H](C(=O)N(C)[C@H](C(=O)NC2C[C@H]3CN(CCCO3)c3ccc4c(c3)c(c(-c3cccnc3[C@H](C)OC)n4CC)CC(C)(C)COC(=O)[C@@H]3CCCN(N3)C2=O)C(C)C)C1 (single isomer, unassigned) [Example A405] | > 10000 nM | > 10000 nM |  |  | > 10000 nM | > 10000 | > 10000 nM | > 10000 nM | > 10000 nM |  | > 1000 |  |  |  |  |  |  |  | 
C=CC(=O)N1CCN(C(=O)N(C)[C@H](C(=O)N[C@H]2Cc3nc(cs3)-c3ccc4c(c3)c(c(-c3cccnc3[C@H](C)OC)n4CC(F)(F)F)CC(C)(C)COC(=O)[C@@H]3CCCN(N3)C2=O)C(C)C)CC1 (atropisomer, axis not shown) [Example A465] | 10 to 100 nM | 10 to 100 nM | < 5000 | 10 to 100 nM | 10 to 100 nM | 10 to 100 | 10 to 100 nM | 10 to 100 nM |  |  |  |  |  |  |  |  |  |  | 
C=CC(=O)N1CC[C@H](C(=O)N(C)[C@H](C(=O)N[C@H]2Cc3cccc(c3)-c3ccc4c(c3)c(c(-c3cnccc3COC)n4CC)CC(C)(C)COC(=O)[C@@H]3CCCN(N3)C2=O)C(C)C)C1 (atropisomer, axis not shown) [Example A119] |  | > 10000 nM |  | 100 to 1000 nM | 1000 to 10000 nM | > 10000 | 1000 to 10000 nM | 100 to 1000 nM | > 10000 nM | < 5000 | 10 to 100 |  |  |  |  |  |  |  | 
CCn1c(-c2cccnc2COC)c2c3cc(ccc31)-c1cc(O)cc(c1)C[C@H](NC(=O)[C@H](C(C)C)N(C)C(=O)[C@H]1CCN(C(=O)/C=C/CN(C)C)C1)C(=O)N1CCC[C@H](N1)C(=O)OCC(C)(C)C2 [Example A054] | 100 to 1000 nM | 100 to 1000 nM |  | 10 to 100 nM | 100 to 1000 nM | 100 to 1000 | 100 to 1000 nM | 10 to 100 nM | 100 to 1000 nM |  |  |  |  |  |  |  |  |  | 
CCn1c(-c2cnccc2COC)c2c3cc(ccc31)-c1cc(O)cc(c1)C[C@H](NC(=O)[C@H](C(C)C)N(C)C(=O)[C@H]1CCN(C(=O)C#CCN(C)C)C1)C(=O)N1CCC[C@H](N1)C(=O)OCC(C)(C)C2 (atropisomer, axis not shown) [Example A107] | 100 to 1000 nM | 100 to 1000 nM | < 5000 | < 10 nM |  | 100 to 1000 | 100 to 1000 nM |  | 100 to 1000 nM |  | < 10 |  |  |  |  |  |  |  | 
C=CC(=O)Nc1ccc(C(=O)N(C)[C@H](C(=O)N[C@H]2Cc3cc(O)cc(c3)-c3ccc4c(c3)c(c(-c3cccnc3[C@H](C)OC)n4CC)CC(C)(C)COC(=O)[C@@H]3CCCN(N3)C2=O)C(C)C)cn1 (atropisomer, axis not shown) [Example A336] | 100 to 1000 nM | 100 to 1000 nM | < 5000 |  | < 10 nM | 1000 to 10000 | 100 to 1000 nM | < 10 nM | 100 to 1000 nM |  |  |  |  |  |  |  |  |  | 
C=CC(=O)N1CC(CN2C(=O)O[C@H](C)[C@H]2C(=O)N[C@H]2Cc3cccc(c3)-c3ccc4c(c3)c(c(-c3cccnc3[C@H](C)OC)n4CC)CC(C)(C)COC(=O)[C@@H]3CCCN(N3)C2=O)C1 (atropisomer, axis not shown) [Example A460] |  |  |  |  |  |  |  |  |  |  |  | > 10000 | > 10000 | 1000 to 10000 | 1000 to 10000 | > 10000 | > 10000 | 1000 to 10000 | > 10000
C=CC(=O)N1CC[C@H](C(=O)N(C)[C@H](C(=O)N[C@H]2Cc3cccc(c3)-c3ccc4c(c3)c(c(-c3cc(C5=CCN(C)CC5)cnc3[C@H](C)OC)n4CC)CC(C)(C)COC(=O)[C@@H]3CCCN(N3)C2=O)C(C)C)C1 (atropisomer, axis not shown) [Example A514] | > 10000 nM | > 10000 nM |  | 1000 to 10000 nM | 1000 to 10000 nM | > 10000 | > 10000 nM | 1000 to 10000 nM | > 10000 nM |  |  |  |  |  |  |  |  |  | 
